Measurements from patent US20040162467A1, “Non-invasive transudate extraction” (priority 2001, published 2004).
Values joined by “and” are separate entries in the source; they are usually repeats but may differ in a detail not shown here. Equal values may be shown once.

Tests used:
[1] = Concentrations in transdermal exudate collected by different formats from sheep, versus serum; conditions: in vivo
Description: (§1) Sodium lauryl sulfate (40%) and either a commercial ultrasound conductive gel (Aquasonic, Parker Lab., NJ 07004, USA) or a 10% ethanol gel (the two gels were alternated in use) are employed. These gels are designated SLS-UG and SLS-EG respectively herein. Collected SLS-UG and SLS-EG are assayed as for blood. Saliva was divided into two samples. The first sample is stored at −20° C. and assayed as for blood. The second sample is assayed at the time of experimentation using the apparatus and immunosensors described above.
Ten of these animals were used to develop the transdermal exudate collection technique. These 10 animals were penned as above, and a catheter inserted into the jugular vein using known techniques in the art. A mixture of sodium lauryl sulfate and either SLS-UG or SLS-EG was positioned onto the shaved area on the back of each animal. […] At the end of the hour, the remaining mix on the back was collected. The entire procedure was repeated three times. This mix was subject to assay (see below) for hormones and glucose content.
On the following day, one of the two gel mixes were rubbed on and, after 10 min, ultrasound (20 kHz, 10 W/cm^2, pulsed 5 s on/5 s off using an ITO Physiotherapy and rehabilitation unit, Tokyo 176-8605, Japan) applied for 1 min directly onto the mix. Ten minutes later, the mix was again collected and measured. This was then repeated with 2 min of the ultrasound application, and on a following day, the entire procedure repeated using the alternative gel mix on the shaved patch on the animal. Times greater than 2 min were not attempted due to potential risk of skin damage. Blood samples were collected at the time of ultrasound application and again at the time when the gel mix was also collected. The entire ultrasound procedure was then repeated on subsequent days with the addition of an application of a 9V electric field either side of the ultrasound head (in contact with skin).
On a separate day, in a further repeat of the above procedure; the collecting head (50) was positioned onto the ultrasound device. The ultrasound device was modified to ensure good coupling for use with the collecting head and delivery of needed parameters to the skin. The output of the device was reset to achieve the same energy and pulse delivery to the skin's surface as when the collecting head was not present, and the ultrasound device had been placed directly in contact with the gels (as described above). Three fluid flow rates into the collection chamber of the head were compared: 150, 300 and 600 μl/min. The effluent fluid was then assayed. On a final day, this was then repeated with the immunosensors positioned in the exit line from the chamber, with immunosensor measurement of the hormones made as has been described above.

[2] = Serum, transdermal and saliva samples from sheep before, during and after exercise; conditions: for Saliva: 20-min saliva lag; for Exudate: transdermal
Description: as §1
(§2) Student t tests, ANOVA or Wilcoxon test for paired samples are made as appropriate. Statistical significance is taken at P≦0.05 level. For analysis across the exercise stress, data is grouped into pre, during and post exercise values as actual sample times relative to the exercise for transdermal and blood obtained values. For pre, during and post exercise grouping of saliva samples, a 20-min lag was allowed relative to blood and transdermal values in sheep and a 30-min lag in human subjects.
In the remaining 10 sheep, experimentation took place on three separate days, each 3 days apart. On days of experimentation, animals were penned as above and the jugular vein of the animal was catheterised. Animals were left to rest for 50 min and then a single ultrasound application applied for 1 min as above. […] A series of electrosonophoresis collections were made concurrently with blood collection from the jugular vein, every 5 min for a further 1 h. Saliva samples were collected on every second blood sample (i.e. every 10 min). At completion of this time, a human shepherd, intermittently for 30 min, then ran the animals around a paddock. During this 30 min, each animal was briefly restrained manually and sampled on all three parameters every 10 min (i.e. three samples repeated three times). At the end of this period, animals were repenned and rested for 10 min, and a further saliva collection was made. Following this saliva collection for a further 1-h period, collection as above, prior to exercise, was repeated. In this manner for each animal, in each session, 27 blood and transdermal samples and 16 saliva samples were collected.

[3] = Patients recovering in intensive care: blood versus ultrasound (US) levels; format: in vivo, human; conditions: one value per sample
[4] = Serum, transdermal and saliva samples from human subjects before, during and after exercise; conditions: for Saliva: 30-min saliva lag
Description: as §1, §2
Ten human volunteers (males aged 19-23, body weights 85-103 kg) were seated at 09:30 h. During the experiment, they were held at a room temperature of 20-22° C. An initial 1 min burst of ultrasound, as for the sheep (above), was made on the volar surface of the forearm, following application of SLS-EG mix. Ten minutes later, transdermal (electrosonophoresis) collection began from this site on this forearm, simultaneous to a venepuncture blood collection being made from the other. A saliva collection was then made, followed by a second, third and fourth saliva collection 20, 30 and 40 min after the blood sample. These measurements were repeated three times over 3 h (i.e. a total of three blood and transdermal samples and 12 saliva samples). In between each sampling series, subjects were allowed to walk around, eat lightly and drink water. Following this collection, the five volunteers exercised at moderate intensities, for 40 min (heart rates maintained in the range of 130-160 bpm) on a rowing machine, stopping briefly at 10, 20 and 30 min to give blood, transdermal and saliva samples. The subjects gave another set of samples at 40 min upon completion of rowing, then warmed down lightly with stretching exercises for a further 10 min and gave a further saliva sample at the end of this time. Two more saliva samples were collected at 60 and 70 min after exercise started. At the end of this time, sampling was repeated as above, prior to exercise, for a further 3 h. The entire procedure was repeated twice a week for 3 weeks (a total of six times). The distance rowed (m) represented the total work rate during the exercise.

[5] = Salivary cortisol during familiarization period; format: in vivo; conditions: sheep
Description: Twenty sheep (Romney cross ewes, 36-44 kg live weights) were farmed together as a flock for 14 days prior to experimentation. On each of these days, they were rounded up, penned, a patch on their backs (approximately 5 cm in diameter) shaved and SLS-UG or SLS-EG applied.
Two minutes later the electrosonophoresis device was placed briefly on this patch (not turned on). At the end of 1 h of penning saliva was collected using a plastic suction bulb positioned manually into the mouth of the sheep. In this manner the sheep were familiarized to the experimental procedure.

C[C@]12CCC(=O)C=C1CC[C@@H]1[C@@H]2[C@@H](O)C[C@@]2(C)[C@H]1CC[C@]2(O)C(=O)CO [Cortisol, cortisol]
Recovery as % of serum levels [1]: 5% | Serum ([2]; 10 min Exercise): 19.6 ± 5.1 ng/L | Saliva ([2]; 10 min Exercise): 1.51 ± 0.97 ng/L | Exudate ([2]; 10 min Exercise): 2.91 ± 0.83 ng/L | Serum ([2]; 20 min Exercise): 27.8 ± 4.6 ng/L | Saliva ([2]; 20 min Exercise): 2.35 ± 2.19 ng/L | Exudate ([2]; 20 min Exercise): 3.92 ± 1.01 ng/L | Serum ([2]; 30 min Exercise): 39.3 ± 7.4 ng/L | Saliva ([2]; 30 min Exercise): 2.44 ± 1.76 ng/L | Serum ([2]; Postexercise): 18.3 ± 4.9 ng/L | Saliva ([2]; Postexercise): 1.34 ± 1.81 ng/L | Exudate ([2]; Postexercise): 2.71 ± 0.55 ng/L | Serum ([2]; Preexercise): 11.9 ± 4.7 ng/L | Saliva ([2]; Preexercise): 1.07 ± 1.03 ng/L | Exudate ([2]; Preexercise): 1.71 ± 0.85 ng/L | Cortisol US [3]: 32.1 ng/mL and 37.4 ng/mL and 30.5 ng/mL and 39.7 ng/mL and 29.2 ng/mL and 36.4 ng/mL and 31.3 ng/mL and 45.9 ng/mL | Serum ([4]; 0 min Exercise): 29.5 ± 9.2 ng/L | Saliva ([4]; 0 min Exercise): 2.79 ± 1.13 ng/L | Serum ([4]; 10 min Exercise): 7.08 ± 11.5 ng/L | Saliva ([4]; 10 min Exercise): 8.01 ± 2.86 ng/L | Serum ([4]; 20 min Exercise): 91.3 ± 19.7 ng/L | Saliva ([4]; 20 min Exercise): 8.75 ± 4.31 ng/L | Serum ([4]; 30 min Exercise): 115.7 ± 15.8 ng/L | Saliva ([4]; 30 min Exercise): 10.04 ± 3.11 ng/L | Serum ([4]; 40 min Exercise): 109.4 ± 13.1 ng/L | Saliva ([4]; 40 min Exercise): 9.19 ± 3.76 ng/L | Serum ([4]; Postexercise): 49.6 ± 11.3 ng/L | Saliva ([4]; Postexercise): 4.02 ± 1.95 ng/L | Serum ([4]; Preexercise): 22.7 ± 8.1 ng/L | Saliva ([4]; Preexercise): 2.25 ± 1.04 ng/L | Salivary value ([5]; Day 14): 1.1 ± 0.9 ng/mL | Salivary value ([5]; first day): 6.4 ± 1.2 ng/mL
